Laboratory results: US20260207551A1, “PHOSPHOGLICERATE DEHYDROGENASE INHIBITORS FOR THE TREATMENT OF FIBROSIS” (CHIESI FARMACEUTICI S.P.A., priority 2022, published 2026)

What was measured:
αSMA = experiment: Phenotypic assay: high content aSMA staining in NHLF cells; format: cell-based, Human; conditions: NHLF, 72 h incubation
Protocol: NHLF cells (Lonza #CC2512) were seeded as 2000 cells/well in 384-well plates in MEM medium w/o serine and glycine (Sigma #M2279)+1% pen/strep+5 mM L-glutamine +10% FBS and incubated overnight at 37° C., 5% CO2.
The next day, cells were washed with PBS and starvation MEM medium w/o serine and glycine (0% FBS) was added and cells were incubated overnight at 37° C., 5% CO2. The day after, cells were pre-incubated with compounds or vehicle (0.3% DMSO) for 1 h. Compounds were tested at 9 consecutive 3-fold dilutions starting from 30 μM. Each compound was tested in duplicate. Cells were further incubated for 72 h at 37° C., 5% CO2, 95% humidity. After 72 h of incubation, αSMA expression was quantified using immunostaining: • Fixation in 4% paraformaldehyde, • Blocking with 3% BSA, 2% FBS, 0.2% Triton-X in PBS, • Primary ab. anti-αSMA (AbCam #ab7817) diluted 500× in blocking buffer • Anti-mouse secondary ab. AF488 (ThermoFisher #A11029) • % of αSMA positive cells was determined by High Content Imaging (Molecular Device), data analysis was performed using MetaXpress software (Molecular Devices) and % of αSMA positive was further used to calculate % of inhibition for tested compounds. Total cell number was determined by Hoechst staining and % of viability over TGFβ stimulated controls was calculated.

Collagen I = experiment: Fibroblast to myofibroblast transition (FMT) in vitro assay: Collagen I detection; format: cell-based; conditions: Homo sapiens, NHLF, 72 h, read-out: Collagen-I pIC50 (converted)
synthesis of 13C3-serine = experiment: PK/PD model: in vivo [13C6] glucose tracing, inhibition of 13C3-serine synthesis; set-up: species or system mouse male (C57BL/6J); conditions: 1 h; for decrease of brain serine concentration: not statistically significant
Protocol: As PHGDH catalyzes the rate-limiting step of glucose-derived serine synthesis, a pharmacokinetic/pharmacodynamic (PK/PD) experiment aimed to assess the inhibition of the synthesis of ^13C3-serine after oral administration of ^13C6-glucose was performed in mouse male (C57BL/6J).
Animals were fasted overnight before treatment. Following 0.5 h from administration of either Compound 19 at dose of 300 mg/kg or vehicle (0.5% Tween 80, 0.5% Methylcellulose in H2O), ^13C6-glucose was administered by oral gavage (2 g/kg, Merck Life Science Srl). Blood, lung, and brain samples were collected at 1 h, 6.5 h and 24.5 h after treatment with Compound 19 or vehicle.
The tissue concentration of ^13C3-serine was determined by a liquid chromatography-tandem mass spectrometry (LC/MS/MS) assay. GraphPad Prism (version 8.1.2) was used for drawing graphs and for statistical analysis. Plasma or tissue homogenate samples (tissues were homogenized with a water/acetonitrile 50/50 mixture) were extracted with 3 volumes of acetonitrile. Supernanatant was injected into HPLC system (Agilent 1260 Quaternary Pump equipped with an Agilent 1200 High Performance Autosampler SL; Agilent), using a Kinetex EVO C18 analytical column (100 A, 50×2.1 mm, 2.6 μm; Phenomenex) for the analysis of Compound 19 or an InfinityLab Poroshell 120 Hilic-Z (50×2.1 mm 2.7 μm; Agilent) for the analysis of ^13C3-serine. The mobile phases consisted of 0.1% formic acid in water (solvent A) and 0.1% formic acid in acetonitrile (solvent B); chromatographic separation was performed with gradient elution method (see conditions below): • Compound 19 (0.0-0.5 min, 10% B; 0.5-3.0 min, gradient to 90% B; 3.0-5.0 min. 90% B; 5.0-6.0 min, gradient to 10% B; 6.0-10.0 min, 10% B—flow rate: 0.4 mL/min). • S^13C3-serine (0.0-0.5 min, 95% B; 0.5-4.0 min, gradient to 60% B; 4.0-5.0 min, 60% B; 5.0-6.0 min, gradient to 95% B; 6.0-10.0 min, 95% B—flow rate: 0.4 mL/min).
Mass spectrometric analysis was performed on a linear ion trap triple quadrupole mass spectrometer (4000 Q TRAP; AB SCIEX) equipped with a turbo spray ion source; mass spectrometer was operated in positive ion mode and quantification was achieved by multiple reaction monitoring (MRM) mode. Peak integration was performed using Analyst (version 1.6.2.). GraphPad Prism (version 8.1.2) was used for drawing graphs and for statistical analysis.
After 0.5 h from administration of Compound 19a at dose of 3, 10, 30, 100 and 300 mg/kg po, Compound 19 at dose of 300 mg/kg po or vehicle po (0.5% Tween 80, 0.5% Methylcellulose in H2O), mice received ^13C6-glucose by oral gavage (2 g/kg, Merck Life Science Srl). […] Blood was withdrawn by cardiac puncture and collected in heparin tubes.

[1] = tested on: bleomycin-induced pulmonary fibrosis; experiment: Bleomycin-induced pulmonary fibrosis in male mice (Example 6); format: in vivo, Male C57BL6/J mice
Protocol: The effect of Compound 19a was evaluated in a murine model (C57BL/6J mouse strain) in which fibrosis was induced by a double oropharyngeal (OA) instillation of bleomycin. The Compound 19a was administered under therapeutic regimen for 14 days, starting the treatments at day 7 from the first instillation of Bleomycin OA up to the day 21, considered the endpoint for this model.
All mice were maintained under pathogen-free conditions and had free access to food and water.
Lung injury was induced by double OA instillation of bleomycin hydrochloride (BLM, BAXTER, Deerfield, IL, USA) at day 0 and day 4 at the dose of 0.03 U/mouse in […] of saline solution (NaCl 0.9%). Control animals received double OA instillation of […] of saline solution.
The Compound 19a was orally administered twice daily at the three doses of 3, 30 and 100 mg/Kg 10 mL/Kg, using as vehicle for dissolution the 0.5% Tween 80, 0.5% Methylcellulose in H2O.
On day 21, the respiratory system mechanics were measured using the FlexiVent System (SCIREQ Inc., Montreal Qc, Canada) (Vanoirbeek et al., 2010).
Briefly, mice were anesthetized by intraperitoneal injection of ketamine (Anesketin®, Dechra Inc., Handelsweg, NL) and xylazine (Xilagesic®, Calier Inc., Barcelona, ES) solution (100 mg/Kg and 10 mg/Kg, respectively). Once anesthesia was achieved, to analyze forced vital capacity (FVC), anesthetized mice were tracheotomized using an 18-gauge metal cannula, connected via an endotracheal cannula to the FlexiVent and ventilated at a respiratory rate of 150 breaths/min and tidal volume of 10 mL/Kg against a positive end-expiratory pressure of 3 cm H2O to achieve a mean lung volume close to that during spontaneous breathing. To prevent spontaneous breathing mice also received pancuronium bromide at 1 mg/Kg intraperitoneally. FlexiVent software version 8.1 was used to perform the perturbations.
Immediately after the in-life evaluation, plasma and bronchoalveolar lavage fluid (BALF) samples were collected.
First, blood was collected by cardiac puncture, and plasma was obtained after centrifugation of blood at 2000×g and 4° C. for 10 minutes.
Subsequently, the lungs were gently rinsed three times using a tracheal cannula with 0.6 mL of clear BAL solution. The obtained BALF was centrifuged at 1000×g and 4° C. for 10 minutes. The cell-free supernatant was used for biomarkers quantitative determination.
The following biomarkers were determined in BALF and plasma samples by commercially available ELISA kits: Collagen I (evaluated in BALF), an index of collagen accumulation; matrix metallopeptidase 7 (MMP-7, evaluated in BALF), indicator of aberrant fibrogenesis and ECM remodeling and surfactant protein D (SP-D, evaluated in PLASMA), marker of alveolar epithelial cell damage and dysfunction.
Lastly, the entire lungs were resected, fixed with formalin and embedded in paraffin. Sections were stained with Masson's trichrome to assess the grade and severity of fibrosis and collagen deposition.

[2] = Compound 19a 100 mg/Kg bid, Nintedanib esylate 50 mg/Kg bid

For `CC(C)C(C(=O)O)c1ccc(C2(NC(=O)c3cc4c(Cl)c(Cl)ccc4n3C)CCOC2)cc1` (racemic) [Compound 19a, Diasteroisomer 2 of (±)-2-(4-(3-(4,5-Dichloro-1-methyl-1H-indole-2-carboxamido)tetrahydro-furan-3-yl)phenyl)-3-methylbutanoic acid], the “aSMA pIC50” value (αSMA) was 6.6, the IC50 (Collagen I) was 126 nM and the “decrease of brain serine concentration” value (synthesis of 13C3-serine; 100 mg/kg po) was 12%. The “decrease of brain serine concentration” value (synthesis of 13C3-serine; 300 mg/kg po) was 30%, the “ED80 (inhibition of labelled serine)” value (synthesis of 13C3-serine; plasma and lung, both tissues, po, estimated) was “around 30 mg/kg” and the “fibrotic tissue quantification by automated analysis (FIG. 19B)” value ([1]; 100 mg/Kg) was “effect comparable to Nintedanib”. The “reduction of Collagen I in BALF” value [1, 2] was 52%, the “reduction of MMP-7 in BALF” value [1, 2] was greater than 100% and the “reduction of SP-D levels in plasma” value [1, 2] was 74%. The “improvement of FVC decline” value ([1]; Compound 19a 100 mg/kg bid, Nintedanib esylate 50 mg/Kg bid, vs BLM/vehicle) was 77% and the “reduction of Ashcroft score” value ([1]; day 21, dose not stated) was 56%.
